Test results as given in ChEMBL document CHEMBL1146126 (Bioorg Med Chem Lett, 2006).

Legend:
[1] = molecular target: Prostaglandin E2 receptor EP2 subtype (Rattus norvegicus, UniProt Q62928); test: Binding affinity to rat EP2 receptor expressed in HEK293 cells; assay type: cell-based
[2] = molecular target: Prostaglandin E2 receptor EP4 subtype (Rattus norvegicus) (UniProt P43114); test: Activity at rat EP4 transfected in HEK293 cells by cAMP accumulation compared to PGE2; assay type: functional, cell-based
[3] = molecular target: T1, Prostaglandin E2 receptor EP4 subtype (Rattus norvegicus, UniProt P43114); test: Binding affinity to rat EP4 receptor expressed in HEK293 cells; assay type: cell-based
[4] = molecular target: T1, Prostaglandin E2 receptor EP4 subtype; test: Activity at rat EP4 transfected in HEK293 cells by cAMP accumulation; assay type: functional, cell-based
Rattus norvegicus [5] = test: Increase in cortical area at 30 mg/kg, sc 28 days post dose in ovariectomized osteopenic rat; assay type: functional; details: route subcutaneous
[6] = Half life in po dosed Sprague-Dawley rat; assay type: ADME, organism-based; details: in vivo
[7] = Oral bioavailability in Sprague-Dawley rat; assay type: ADME, organism-based; details: in vivo
Rattus norvegicus [8] = test: Volume distribution in sc dosed Sprague-Dawley rat; assay type: ADME, organism-based; details: in vivo
Rattus norvegicus [9] = test: Increase in total bone content at 30 mg/kg, sc 28 days post dose in ovariectomized osteopenic rat; assay type: functional; details: route subcutaneous
Rattus norvegicus [10] = test: Increase in total bone density at 10 mg/kg, sc 28 days post dose in ovariectomized osteopenic rat; assay type: functional; details: route subcutaneous
Rattus norvegicus [11] = test: Increase in cortical thickness at 10 mg/kg, sc 28 days post dose in ovariectomized osteopenic rat; assay type: functional; details: route subcutaneous
Rattus norvegicus [12] = test: Increase in cortical content at 10 mg/kg, sc 28 days post dose in ovariectomized osteopenic rat; assay type: functional; details: route subcutaneous
[13] = Half life in sc dosed Sprague-Dawley rat; assay type: ADME, organism-based; details: in vivo
Rattus norvegicus [14] = test: Increase in cortical thickness at 30 mg/kg, sc 28 days post dose in ovariectomized osteopenic rat; assay type: functional; details: route subcutaneous
[15] = Half life in iv dosed Sprague-Dawley rat; assay type: ADME, organism-based; details: in vivo
Rattus norvegicus [16] = test: Increase in total bone content at 10 mg/kg, sc 28 days post dose in ovariectomized osteopenic rat; assay type: functional; details: route subcutaneous
[17] = Plasma clearance in iv dosed Sprague-Dawley rat
Rattus norvegicus [18] = test: Increase in cortical area at 10 mg/kg, sc 28 days post dose in ovariectomized osteopenic rat; assay type: functional; details: route subcutaneous
Rattus norvegicus [19] = test: Increase in total bone density at 30 mg/kg, sc 28 days post dose in ovariectomized osteopenic rat; assay type: functional; details: route subcutaneous
Rattus norvegicus [20] = test: Increase in cortical content at 30 mg/kg, sc 28 days post dose in ovariectomized osteopenic rat; assay type: functional; details: route subcutaneous
[21] = molecular target: T2, Prostaglandin E2 receptor EP1 subtype (Homo sapiens, UniProt P34995); test: Binding affinity to human EP1 receptor expressed in HEK293 cells; assay type: cell-based
T2 sequence (P34995 whole entry): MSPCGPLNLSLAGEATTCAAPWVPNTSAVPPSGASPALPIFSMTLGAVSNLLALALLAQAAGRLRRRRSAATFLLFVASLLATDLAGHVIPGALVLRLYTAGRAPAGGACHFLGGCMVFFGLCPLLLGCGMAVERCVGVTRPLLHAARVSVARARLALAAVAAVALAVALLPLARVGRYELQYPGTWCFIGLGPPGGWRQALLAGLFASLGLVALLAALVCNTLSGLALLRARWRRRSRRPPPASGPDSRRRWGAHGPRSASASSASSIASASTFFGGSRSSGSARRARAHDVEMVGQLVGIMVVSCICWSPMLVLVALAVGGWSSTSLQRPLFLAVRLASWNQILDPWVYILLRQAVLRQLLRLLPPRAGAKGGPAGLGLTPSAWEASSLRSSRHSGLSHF

[22] = molecular target: T3, Prostaglandin E2 receptor EP3 subtype (Homo sapiens, UniProt P43115); test: Binding affinity to human EP3 receptor expressed in HEK293 cells; assay type: cell-based
T3 sequence (P43115 whole entry): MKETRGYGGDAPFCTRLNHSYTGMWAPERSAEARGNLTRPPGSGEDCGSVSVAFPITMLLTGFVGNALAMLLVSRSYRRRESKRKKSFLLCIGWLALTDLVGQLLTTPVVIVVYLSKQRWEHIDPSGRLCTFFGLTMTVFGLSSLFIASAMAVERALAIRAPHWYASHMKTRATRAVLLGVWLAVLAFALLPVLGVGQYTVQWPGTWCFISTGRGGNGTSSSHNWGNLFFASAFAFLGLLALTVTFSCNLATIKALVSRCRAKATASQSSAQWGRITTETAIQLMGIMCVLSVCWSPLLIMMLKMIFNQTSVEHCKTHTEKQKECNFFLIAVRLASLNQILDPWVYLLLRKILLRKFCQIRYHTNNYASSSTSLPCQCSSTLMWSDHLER

Prostaglandin E2 receptor EP2 subtype, sequence (Q62928 whole entry): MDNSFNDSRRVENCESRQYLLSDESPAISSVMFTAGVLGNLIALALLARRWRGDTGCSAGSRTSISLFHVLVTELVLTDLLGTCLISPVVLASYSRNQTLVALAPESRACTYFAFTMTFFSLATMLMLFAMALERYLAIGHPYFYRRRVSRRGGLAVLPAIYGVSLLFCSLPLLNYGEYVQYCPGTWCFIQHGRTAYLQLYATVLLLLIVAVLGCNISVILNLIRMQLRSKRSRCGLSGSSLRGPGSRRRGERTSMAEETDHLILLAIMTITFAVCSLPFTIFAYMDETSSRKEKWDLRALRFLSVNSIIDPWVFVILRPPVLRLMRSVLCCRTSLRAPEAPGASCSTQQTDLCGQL
Prostaglandin E2 receptor EP4 subtype (Rattus norvegicus), sequence (P43114 whole entry): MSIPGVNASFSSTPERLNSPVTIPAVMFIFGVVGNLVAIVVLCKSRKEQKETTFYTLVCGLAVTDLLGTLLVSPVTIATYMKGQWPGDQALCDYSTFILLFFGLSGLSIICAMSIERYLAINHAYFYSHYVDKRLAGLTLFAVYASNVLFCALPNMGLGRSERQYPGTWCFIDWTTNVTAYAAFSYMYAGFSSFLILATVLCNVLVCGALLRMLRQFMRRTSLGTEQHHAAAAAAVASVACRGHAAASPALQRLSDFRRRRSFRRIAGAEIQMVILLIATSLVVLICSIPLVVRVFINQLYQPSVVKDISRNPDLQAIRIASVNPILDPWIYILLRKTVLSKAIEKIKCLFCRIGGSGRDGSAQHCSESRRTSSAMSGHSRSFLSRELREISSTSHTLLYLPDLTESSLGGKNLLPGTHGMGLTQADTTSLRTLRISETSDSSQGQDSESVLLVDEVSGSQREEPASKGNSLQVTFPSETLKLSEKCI
T1 sequence (P43114 whole entry): as above

Row | SMILES | IC50 [1] | Activity [2] | IC50 [3] | EC50 [4] | other results
1 | O=C(O)c1ccc(CCCN2C(=O)CC[C@@H]2CCC(O)Cc2ccccc2)s1 (stereo not given in full) | 690 nM | 88% | 21 nM | 1.7 nM | –
2 | O=C(O)c1ccc(CCCN2C(=O)CC[C@@H]2CCC(O)Cc2ccccc2-c2ccccc2)s1 (stereo not given in full) | 125 nM | – | 1600 nM | – | –
3 | O=C(O)CCCCCCN1C(=O)CC[C@@H]1CC[C@@H](O)CCc1ccccc1 | > 3200 nM | – | 2710 nM | – | –
4 | O=C(O)CCCCCCN1C(=O)CC[C@@H]1CC[C@@H](O)Cc1cccc(C(F)(F)F)c1 | > 3200 nM | 75% | – | 13 nM | Activity (Rattus norvegicus [5]): 66.92%; half-life [6]: 25.2 min; bioavailability [7]: 17%; Vdss (Rattus norvegicus [8]): 0.46 L/kg; Activity (Rattus norvegicus [9]): 32.53%; Activity (Rattus norvegicus [10]): 18.73%; Activity (Rattus norvegicus [11]): 34.12%; Activity (Rattus norvegicus [12]): 29.78%; half-life [13]: 25.8 min; Activity (Rattus norvegicus [14]): 124.19%; half-life [15]: 12 min; Activity (Rattus norvegicus [16]): 15.34%; clearance [17]: 71 mL/min/kg; Activity (Rattus norvegicus [18]): 21.93%; Activity (Rattus norvegicus [19]): 23.7%; Activity (Rattus norvegicus [20]): 57.7%
5 | O=C(O)c1ccc(CCCN2C(=O)CC[C@@H]2CC[C@@H](O)Cc2cccc(Cl)c2)s1 | 188 nM | 70% | 1.1 nM | 0.6 nM | –
6 | COCc1cccc(C[C@H](O)CC[C@H]2CCC(=O)N2CCCCCCC(=O)O)c1 | > 3200 nM | 89% | 62 nM | 18 nM | IC50 [21]: > 3200 nM; IC50 [22]: > 2000 nM
7 | O=C(O)c1ccc(CCCN2C(=O)CC[C@@H]2CCC(O)Cc2cccc(F)c2)s1 (stereo not given in full) | 640 nM | 97% | 17 nM | 2.4 nM | –
8 | O=C(O)c1ccc(CCCN2C(=O)CCC2CCC(O)Cc2cccc(Oc3ccccc3)c2)cc1 (stereo not given) | > 3200 nM | – | 220 nM | – | –
9 | O=C(O)CCCCCCN1C(=O)CCC1CCC(O)Cc1cccc(Cl)c1 (stereo not given) | > 3200 nM | 89% | 22 nM | 8.8 nM | –
10 | O=C(O)c1ccc(CCCN2C(=O)CC[C@@H]2CC[C@@H](O)Cc2ccc(F)cc2)s1 | 1200 nM | 70% | 70 nM | 22 nM | –
11 | CCc1ccc(CC(O)CC[C@H]2CCC(=O)N2CCCc2ccc(C(=O)O)s2)cc1 (stereo not given in full) | 1200 nM | 82% | 140 nM | 275 nM | –
12 | O=C(O)c1ccc(CCCN2C(=O)CC[C@@H]2CCC(O)Cc2cccc(-c3ccccc3)c2)s1 (stereo not given in full) | 135 nM | 95% | 50 nM | 203 nM | IC50 [21]: 18600 nM; IC50 [22]: 20000 nM
13 | O=C(O)c1ccc(CCCN2C(=O)CCC2CCC(O)Cc2cccc(-c3ccccc3)c2)cc1 (stereo not given) | > 3200 nM | 97% | 47 nM | 440 nM | –
14 | O=C(O)c1ccc(CCCN2C(=O)CCC2CCC(O)Cc2cccc(F)c2)cc1 (stereo not given) | > 3200 nM | – | 126 nM | – | –
15 | O=C(O)CCCCCCN1C(=O)CCC1CCC(O)CCc1ccccc1 (stereo not given) | > 3200 nM | – | > 3200 nM | – | –
16 | O=C(O)CCCCCCN1C(=O)CC[C@@H]1CCC(O)Cc1cccc(Oc2ccccc2)c1 (stereo not given in full) | > 3200 nM | – | – | – | IC50 [21]: > 3200 nM; IC50 [22]: > 3200 nM
17 | O=C(O)c1ccc(CCCN2C(=O)CCC2CCC(O)Cc2cccc(Cl)c2)cc1 (stereo not given) | > 3200 nM | 106% | 42 nM | 425 nM | IC50 [21]: > 3200 nM; IC50 [22]: > 3200 nM
18 | N#Cc1cccc(C[C@H](O)CC[C@H]2CCC(=O)N2CCCCCCC(=O)O)c1 | > 3200 nM | 104% | 388 nM | 96 nM | –
19 | O=C(O)CCCCCCN1C(=O)CC[C@@H]1CC[C@@H](O)Cc1cccc(-c2ccccc2)c1 | > 3200 nM | 101% | 337 nM | 195 nM | –
20 | O=C(O)c1ccc(CCCN2C(=O)CC[C@@H]2CCC(O)Cc2ccc3ccccc3c2)s1 (stereo not given in full) | > 3200 nM | 73% | 65 nM | 500 nM | –
21 | O=C(O)c1ccc(CCCN2C(=O)CCC2CCC(O)Cc2ccc(F)cc2)cc1 (stereo not given) | > 3200 nM | – | 2770 nM | – | IC50 [21]: > 3200 nM; IC50 [22]: > 3200 nM
22 | COCCc1cccc(C[C@H](O)CC[C@H]2CCC(=O)N2CCCCCCC(=O)O)c1 | > 3200 nM | 82% | 210 nM | 92 nM | –
23 | O=C(O)CCCCCCN1C(=O)CC[C@@H]1CC[C@@H](O)Cc1cccc(O)c1 | > 3200 nM | 100% | 1200 nM | 170 nM | –
24 | O=C(O)c1ccc(CCCN2C(=O)CC[C@@H]2CCC(O)Cc2ccc(Cl)cc2)s1 (stereo not given in full) | 86 nM | 90% | 80 nM | 40 nM | IC50 [21]: > 3200 nM; IC50 [22]: > 3200 nM
25 | O=C(O)c1ccc(CCCN2C(=O)CC[C@@H]2CC[C@@H](O)Cc2cccc(C(F)(F)F)c2)s1 | 483 nM | 102% | – | – | half-life [6]: 52.2 min; bioavailability [7]: 1%; Vdss (Rattus norvegicus [8]): 0.49 L/kg; half-life [13]: 18 min; half-life [15]: 12 min; clearance [17]: 70 mL/min/kg
26 | O=C(O)CCCCCCN1C(=O)CC[C@@H]1CCC(O)Cc1ccccc1 (stereo not given in full) | > 3200 nM | 114% | 54 nM | 32.5 nM | half-life [6]: 27 min; IC50 [21]: > 3200 nM; bioavailability [7]: 21%; Vdss (Rattus norvegicus [8]): 0.4 L/kg; half-life [13]: 21 min; half-life [15]: 6 min; clearance [17]: 101 mL/min/kg; IC50 [22]: > 3200 nM
27 | O=C(O)c1ccc(CCCN2C(=O)CC[C@@H]2CC[C@@H](O)Cc2cccc(C(F)(F)F)c2)cc1 | > 3200 nM | 105% | 70 nM | 105 nM | –
28 | O=C(O)c1ccc(CCCN2C(=O)CCC2CCC(O)Cc2ccccc2)cc1 (stereo not given) | > 3200 nM | – | 250 nM | – | IC50 [21]: > 3200 nM; IC50 [22]: > 3200 nM
29 | O=C(O)CCCCCCN1C(=O)CC[C@@H]1CC[C@@H](O)Cc1cccc(OC(F)(F)F)c1 | > 3200 nM | 78% | 59 nM | 50 nM | –
